In US9849130B2 (KamTek, Inc., priority 2014, dated 2017):
≈ marks a conversion by molar mass, not a printed value.

Key:
[1] = tested on: Clostridium difficile (CD) strains; assay: microbe, parasite or virus in culture; assay type: cell-based
[2] = tested on: C. perfringens MH310; assay: microbe, parasite or virus in culture; assay type: cell-based; settings: C. perfringens MH310
[3] = tested on: Escherichia coli strains; assay: MIC by microdilution in Mueller-Hinton broth against Escherichia coli strains; assay type: cell-based; settings: for MIC: Mueller-Hinton broth
[4] = tested on: Staphylococcus aureus strains; assay: MIC by microdilution in Mueller-Hinton broth against Staphylococcus aureus strains; assay type: cell-based
[5] = tested on: Bacteroides Strains; assay: MIC by microdilution in Brucella broth against Bacteroides strains; assay type: cell-based, Bacteroides spp.
[6] = tested on: Fusobacterium; assay: MIC by microdilution in Brucella broth against Fusobacterium; assay type: cell-based, Fusobacterium spp.; settings: Brucella broth
[7] = tested on: Bifidobacterium strains; assay: MIC by microdilution in BHI broth against Bifidobacterium strains; assay type: cell-based, Bifidobacterium spp.; settings: BHI broth
[8] = tested on: Lactobacillus strains; assay: MIC against Lactobacillus strains; assay type: cell-based, Lactobacillus spp.; settings: broth microdilution, BHI with 0.02% Tween 80, pH 6.0
[9] = tested on: Lachnospiraceae and related bacterial strains; assay: MIC against Lachnospiraceae and related bacterial strains; assay type: cell-based, Lachnospiraceae spp.; settings: broth microdilution, brucella broth

## CCN=c1cc2n(-c3cccc(C(F)(F)F)c3)c3ccccc3nc-2cc1Nc1cccc(C(F)(F)F)c1 [B4129]
[1]
  antibacterial activity against CD, fold greater than MET: 32 fold
  antibacterial activity against CD, fold greater than VAN: 16 fold
[1]; CD strain BAA1805 (hyper-virulent strain BI/NAP1/027), BB
  MIC: 0.062 µg/mL (≈ 0.118 µM)
[1]; n = 37
  MIC50: ≦0.031 μg/ml
  MIC90: 0.125 µg/mL (≈ 0.237 µM)
  MIC Range: ≦0.031-0.25 μg/ml
[2]; BB
  MIC: 0.25 µg/mL (≈ 0.475 µM)
[2]; BHI
  MIC: 2 µg/mL (≈ 3.8 µM)
[3]
  activity against E. coli (in words): relatively inactive
[3]; Escherichia coli strain NR 6
  MIC: >32 µg/mL
[3]; Escherichia coli strain NR 8
  MIC: >32 µg/mL
[3]; Escherichia coli strain NR 96
  MIC: >32 µg/mL
[3]; Escherichia coli strain NR 104
  MIC: >32 µg/mL
[3]; Escherichia coli strain NR 17626
  MIC: >32 µg/mL
[3]; Escherichia coli strain NR 17627
  MIC: >32 µg/mL
[3]; Escherichia coli strain NR 17633
  MIC: >32 µg/mL
[3]; Escherichia coli strain NR 17647
  MIC: >32 µg/mL
[3]; Escherichia coli strain NR 17650
  MIC: >32 µg/mL
[3]; Escherichia coli strain NR 17661
  MIC: >32 µg/mL
[4]; Staphylococcus aureus strain NR 10129
  MIC: 32 µg/mL (≈ 60.8 µM)
[4]; Staphylococcus aureus strain NR 10186
  MIC: >32 µg/mL
[4]; Staphylococcus aureus strain NR 10187
  MIC: >32 µg/mL
[4]; Staphylococcus aureus strain NR 10188
  MIC: >32 µg/mL
[4]; Staphylococcus aureus strain NR 10189
  MIC: >32 µg/mL
[4]; Staphylococcus aureus strain NR 10191
  MIC: >32 µg/mL
[4]; Staphylococcus aureus strain NR 10192
  MIC: >32 µg/mL
[4]; Staphylococcus aureus strain NR 10193
  MIC: >32 µg/mL
[4]; Staphylococcus aureus strain NR 10194
  MIC: 32 µg/mL (≈ 60.8 µM)
[4]; Staphylococcus aureus strain NR 10198
  MIC: >32 µg/mL
[5]; B. caccae HM728
  MIC: 2 µg/mL (≈ 3.8 µM)
[5]; B. eggerthii HM210
  MIC: 2 µg/mL (≈ 3.8 µM)
[5]; B. fragilis HM709
  MIC: 2 µg/mL (≈ 3.8 µM)
[5]; B. fragilis HM710
  MIC: 2 µg/mL (≈ 3.8 µM)
[5]; B. fragilis HM714
  MIC: 4 µg/mL (≈ 7.6 µM)
[5]; B. ovatus HM222
  MIC: 0.25 µg/mL (≈ 0.475 µM)
[5]; B. spp. HM18
  MIC: 16 µg/mL (≈ 30.4 µM)
[5]; B. spp. HM19
  MIC: 0.5 µg/mL (≈ 0.95 µM)
[5]; B. spp. HM20
  MIC: 2 µg/mL (≈ 3.8 µM)
[5]; B. spp. HM22
  MIC: 2 µg/mL (≈ 3.8 µM)
[5]; B. spp. HM23
  MIC: 16 µg/mL (≈ 30.4 µM)
[5]; B. spp. HM27
  MIC: 1 µg/mL (≈ 1.9 µM)
[5]; B. spp. HM28
  MIC: 2 µg/mL (≈ 3.8 µM)
[5]; B. spp. HM58
  MIC: 2 µg/mL (≈ 3.8 µM)
[5]; B. stercoris HM1036
  MIC: 0.25 µg/mL (≈ 0.475 µM)
[6]; F. nucleatum HM-75
  MIC: >32 µg/mL
[6]; F. nucleatum HM-260
  MIC: >32 µg/mL
[6]; F. nucleatum HM-992
  MIC: >32 µg/mL
[6]; F. nucleatum HM-993
  MIC: 8 µg/mL (≈ 15.2 µM)
[6]; F. nucleatum HM-994
  MIC: >32 µg/mL
[6]; F. nucleatum HM-995
  MIC: >32 µg/mL
[6]; F. nucleatum HM-996
  MIC: >32 µg/mL
[6]; F. nucleatum HM-997
  MIC: >32 µg/mL
[6]; Fusobacterium sp. HM 42
  MIC: >32 µg/mL
[6]; Fusobacterium sp. HM 57
  MIC: >32 µg/mL
[6]; Fusobacterium sp. HM-556
  MIC: >32 µg/mL
[6]; Fusobacterium sp. HM-758
  MIC: >32 µg/mL
[6]; Fusobacterium sp. HM-871
  MIC: >32 µg/mL
[6]; Fusobacterium sp. HM-874
  MIC: >32 µg/mL
[6]; Fusobacterium sp. HM-875
  MIC: >32 µg/mL
[7]; Bifidobacterium adolescentis HM-633
  MIC: >32 µg/mL
[7]; Bifidobacterium breve HM-411
  MIC: >32 µg/mL
[7]; Bifidobacterium breve HM-412
  MIC: 0.25 µg/mL (≈ 0.475 µM)
[7]; Bifidobacterium breve HM-856
  MIC: >32 µg/mL
[7]; Bifidobacterium breve HM-1120
  MIC: >32 µg/mL
[7]; Bifidobacterium longum HM-845
  MIC: ≦0.031 μg/ml
[7]; Bifidobacterium longum HM-846
  MIC: 0.25 µg/mL (≈ 0.475 µM)
[7]; Bifidobacterium longum HM-847
  MIC: 2 µg/mL (≈ 3.8 µM)
[7]; Bifidobacterium sp. HM-30
  MIC: 4 µg/mL (≈ 7.6 µM)
[7]; Bifidobacterium sp. HM-868
  MIC: >32 µg/mL
[8]; Lactobacillus crispatus HM-637
  MIC: 16 µg/mL (≈ 30.4 µM)
[8]; Lactobacillus gasseri HM-104
  MIC: >32 µg/mL
[8]; Lactobacillus iners HM-126
  MIC: 1 µg/mL (≈ 1.9 µM)
[8]; Lactobacillus jensenii HM-105
  MIC: >32 µg/mL
[8]; Lactobacillus jhonsonii HM-643
  MIC: >32 µg/mL
[8]; Lactobacillus reuteri HM-102
  MIC: >32 µg/mL
[8]; Lactobacillus rhamnosus HM-106
  MIC: >32 µg/mL
[8]; Lactobacillus sp. HM-228
  MIC: 1 µg/mL (≈ 1.9 µM)
[8]; Lactobacillus sp. HM-478
  MIC: >32 µg/mL
[8]; Lactobacillus vaginalis HM-405
  MIC: 2 µg/mL (≈ 3.8 µM)
[9]; Clostridiales bacterium HM-84
  MIC: ≦0.031 μg/ml
[9]; Clostridiales bacterium HM-182
  MIC: 0.125 µg/mL (≈ 0.237 µM)
[9]; Eubacterium sp. HM-178
  MIC: 0.125 µg/mL (≈ 0.237 µM)
[9]; Lachnospiraceae sp. HM-7
  MIC: ≦0.031 μg/ml
[9]; Lachnospiraceae sp. HM-150
  MIC: 0.125 µg/mL (≈ 0.237 µM)
[9]; Lachnospiraceae sp. HM-153
  MIC: 0.125 µg/mL (≈ 0.237 µM)
[9]; Lachnospiraceae sp. HM-154
  MIC: 0.125 µg/mL (≈ 0.237 µM)
[9]; Lachnospiraceae sp. HM-157
  MIC: 0.25 µg/mL (≈ 0.475 µM)
[9]; Lachnospiraceae sp. HM-161
  MIC: 0.125 µg/mL (≈ 0.237 µM)
[9]; Lachnospiraceae sp. HM-480
  MIC: 0.062 µg/mL (≈ 0.118 µM)
[9]; Lachnospiraceae sp. HM-558
  MIC: 0.125 µg/mL (≈ 0.237 µM)
[9]; Lachnospiraceae sp. HM-768
  MIC: ≦0.031 μg/ml
[9]; Lachnospiraceae sp. HM-868
  MIC: >32 µg/mL
[9]; Peptostreptococcaceae sp. HM-766
  MIC: 0.5 µg/mL (≈ 0.95 µM)
